# Values joined by “and” are separate entries in the source; they are usually repeats but may differ in a detail not shown here. Equal entries are not always repeated.
# Tests used:
# [1] = Particle size and polydispersity index (PDI) of lipid nanoparticles by dynamic light scattering; type: physicochemical
# Description: The particle size and polydispersity index (PDI) were determined by dynamic light scattering using Malvern laser particle size analyzer.
# 10 μL of the liposome solution was weighed, diluted to 1 mL with RNase-free deionized water, and added to the sample pool. Each sample was measured in triplicate. The measurement conditions were: […] scattering angle, and 25° C.
# [2] = system: 293T cells; assay: Cell survival rate assay (CCK-8); type: cell-based
# Procedure, shortened: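 293T cells seeded at 10,000 cells/well, cultured overnight, then exposed 24 h to LNP carrying 1.5 μg Fluc-mRNA (cationic:neutral:structured:PEG-type lipid 49:10:39.5:1.5) or Lipofectamine 3000. Viability read by CCK-8, 1 h incubation, absorbance at 450 nm.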
# [3] = system: 293T cells; assay: Fluorescent detection of Fluc-mRNA (cell transfection efficiency of LNP formulations); type: cell-based
# [4] = system: 293T cells; assay: Cell transfection test of LNP formulation of eGFP-mRNA (optimization of preparation conditions); type: cell-based
# Description: The cationic lipid compound YK-407 synthesized in Example 1 was dissolved in ethanol with DSPC (AVT (Shanghai) Pharmaceutical Technology Co., Ltd.), cholesterol (AVT (Shanghai) Pharmaceutical Technology Co., Ltd.) and DMG-PEG2000 according to a molar ratio of 49:10:39.5:1.5, respectively, to prepare an ethanol lipid solution. The ethanol lipid solution was quickly added to citrate buffer (pH=4-5) by ethanol injection method, and vortexed for 30s for later use. eGFP-mRNA was diluted in citrate buffer (pH=4-5) to give an aqueous mRNA solution. A certain volume of liposome solution and mRNA aqueous solution were used to prepare liposomes at weight ratios of total lipids to mRNA of 5:1, 10:1, 15:1, 20:1, 30:1 and 35:1, respectively. The mixtures were sonicated at 25° C. for 15 min (with an ultrasonic frequency of 40 kHz and an ultrasonic power of 800 W). The resulted liposomes were diluted to 10 times volume with PBS, and then ultrafiltered with a 300KDa ultrafiltration tube to remove ethanol. Then the volume was fixed to a certain volume with PBS to give an LNP formulation encapsulating eGFP-mRNA using cationic lipid YK-407/DSPC/cholesterol/DMG-PEG2000 (49:10:39.5:1.5 in molar percentage).
# The LNP formulation encapsulating eGFP-mRNA was prepared according to the method in 1, wherein the molar ratios of cationic lipid YK-407 to neutral lipid DSPC were 1:1, 3:1, 3.5:1, 4:1, 4.5:1, 4.9:1, 10:1, 15:1 and 20:1.
# The LNP formulation encapsulating eGFP-mRNA was prepared according to the method in 1, wherein the cationic lipid in the carrier was YK-407, and the molar ratios of the polymer-conjugated lipid DMG-PEG2000 to the carrier were 0.5%, 1.5%, 3.5%, 5%, 10% and 15%, respectively.
# The LNP formulation encapsulating eGFP-mRNA was prepared according to the method in 1, wherein the molar ratios of cationic lipid YK-407, neutral lipid DSPC, structured lipid cholesterol and polymer-conjugated lipid DMG-PEG2000 were 75:5:15:5, 49:10:39.5:1.5, 45:10:43.5:1.5, 45:25:20:10, 40:10:48.5:1.5, 35:10:53.5:1.5 and 25:5:65:5, respectively.
# Cell recovery and passage: 293T cells were recovered, cultured in a culture dish, and passaged to the required number of cells.
# Seeding plate: The cells in the culture dish were digested and counted. Cells were spread in a 96-well plate at 10,000 cells per well and in a 12-well plate at 150,000 cells per well. Cells were cultured overnight until the cells adhered to the wall.
# Cell transfection test: The LNP formulation containing 1.5 μg of eGFP-mRNA prepared in Example 2 (the cationic lipid in the carrier was YK-407) and the Lipofectamin 3000 formulation of eGFP-mRNA were added respectively to the cell culture medium of the 12-well plate, and further incubated for 24 hours. The transfection efficiency of different samples was then investigated according to the fluorescence intensity by observing with a fluorescence microscope.
# [5] = system: 293T cells; assay: Fluorescent detection of Fluc-mRNA (cell transfection efficiency of LNP formulations); type: cell-based; remark: listed apart in the source
smiles,measurement,setting,value
CCCCCCCCCCCOC(=O)CCCN(CCO)CCN(CCO)CCCCCC(=O)OC(CCCCCCCC)CCCCCCCC [YK-407],PDI,"[1]; LNP formulation of the cationic lipid, 25° C.",16.6%
same,Particle size,"[1]; LNP formulation of the cationic lipid/DSPC/cholesterol/DMG-PEG2000 49:10:39.5:1.5, 25° C.",162 nm
same,Cell survival rate,"[2]; LNP with 1.5 μg Fluc-mRNA, 24 hours, CCK-8",71.37%
same,cell survival rate higher than ALC-0315,[2]; difference vs ALC-0315,24.16%
same,cell survival rate higher than HIMA,[2]; difference vs HIMA (HHMA),7.10%
same,cell survival rate higher than Lipofectamine 3000,[2]; difference vs Lipofectamine 3000,49.71%
same,cell survival rate higher than SM-102,[2]; difference vs SM-102,3.47%
same,cell survival rate higher than YK-404,[2]; difference vs YK-404,29.25%
same,cell survival rate higher than YK-405,[2]; difference vs YK-405,29.51%
same,cell survival rate higher than YK-406,[2]; difference vs YK-406,46.41%
same,cell survival rate higher than YK-408,[2]; difference vs YK-408,29.06%
same,cell survival rate higher than YK-409,[2]; difference vs YK-409,25.26%
same,cell survival rate higher than YK-410,[2]; difference vs YK-410,26.45%
same,cell survival rate higher than YK-411,[2]; difference vs YK-411,55.04%
same,cell survival rate higher than YK-412,[2]; difference vs YK-412,17.23%
same,cell survival rate higher than YK-413,[2]; difference vs YK-413,24.17%
same,cell survival rate higher than YK-414,[2]; difference vs YK-414,42.62%
same,cell survival rate higher than YK-415,[2]; difference vs YK-415,10.21%
same,cell survival rate higher than YK-416,[2]; difference vs YK-416,30.40%
same,cell survival rate higher than YK-417,[2]; difference vs YK-417,50.03%
same,cell survival rate higher than YK-418,[2]; difference vs YK-418,50.32%
same,cell survival rate higher than YK-419,[2]; difference vs YK-419,32.45%
same,cell survival rate higher than YK-420,[2]; difference vs YK-420,35.78%
same,cell survival rate higher than YK-421,[2]; difference vs YK-421,35.66%
same,cell survival rate higher than YK-424,[2]; difference vs YK-424,43.44%
same,cell survival rate higher than compound 21,[2]; difference vs compound 21,3.53%
same,cell survival rate higher than compound 23,[2]; difference vs compound 23,2.26%
same,cytotoxicity reduced compared with YK-411,[2]; rounded summary statement vs YK-411,50% and 55%
same,Relative light unit (RLU),"[3]; LNP with 0.3 μg Fluc-mRNA, 96-well plate, 24 hours",20385506 RLU
same,"cell transfection efficiency, times that of YK-415",[3]; ratio vs YK-415,68.40
same,"cell transfection efficiency, times that of YK-417",[3]; ratio vs YK-417,173.81 and 170
same,"cell transfection efficiency, times that of YK-418",[3]; ratio vs YK-418,183.24 and 180
same,"cell transfection efficiency, times that of YK-424",[3]; ratio vs YK-424,7.07
same,"RLU value, times that of compound 21",[3]; ratio vs compound 21,13.49 and 13
same,"RLU value, times that of compound 23",[3]; ratio vs compound 23,14.53 and 15
same,transfection efficiency at different molar ratios of polymer-conjugated lipid DMG-PEG2000 to carrier,[4]; 0.5% to 15%,the transfection efficiency was the highest when the molar ratio was 1.5%
same,"transfection effect at different molar ratios of cationic lipid, neutral lipid, structured lipid and polymer-conjugated lipid",[4]; 75:5:15:5 to 25:5:65:5,the transfection effect was the best when the ratio was 40:10:48.5:1.5
same,transfection efficiency at different molar ratios of cationic lipid to neutral lipid DSPC,[4]; ratios 1:1 to 20:1,the transfection efficiency was the highest at the molar ratio of cationic lipid to neutral lipid of 4:1
same,transfection effect at different weight ratios of carrier to mRNA,"[4]; ratios 5:1, 10:1, 15:1, 20:1, 30:1 and 35:1",the ratio of 15:1 had the best transfection effect
same,"RLU value, times that of ALC-0315",[5]; ratio vs ALC-0315,9.31
same,"RLU value, times that of HHMA",[5]; ratio vs HHMA,9.81
same,"RLU value, times that of Lipofectamine 3000",[5]; ratio vs Lipofectamine 3000,16.98
same,"RLU value, times that of YK-009",[5]; ratio vs YK-009,3.96
same,"RLU value, times that of YK-405",[5]; ratio vs YK-405,6.37
same,"RLU value, times that of YK-406",[5]; ratio vs YK-406,260.51
same,"RLU value, times that of YK-408",[5]; ratio vs YK-408,13.83
same,"RLU value, times that of YK-409",[5]; ratio vs YK-409,30.43
same,"RLU value, times that of YK-410",[5]; ratio vs YK-410,49.98
same,"cell transfection efficiency, times that of YK-412",[5]; ratio vs YK-412,6.05
same,"cell transfection efficiency, times that of YK-413",[5]; ratio vs YK-413,14.80
same,"cell transfection efficiency, times that of YK-414",[5]; ratio vs YK-414,45.90
same,"cell transfection efficiency, times that of YK-416",[5]; ratio vs YK-416,5.13
same,"cell transfection efficiency, times that of YK-419",[5]; ratio vs YK-419,6.44
same,"cell transfection efficiency, times that of YK-420",[5]; ratio vs YK-420,5.07
same,"cell transfection efficiency, times that of YK-421",[5]; ratio vs YK-421,43.69
